Assay results as given in PubChem BioAssay AID1259420 (Broad Institute, 2018).
“And” between values parts separate entries of the source, which are not always exact repeats. Equal values may be shown once. Results filed as inconclusive are left out. The source made the active and inactive calls. How the calls were made is not given here.

test system: Toxoplasma gondii growth in host cells, no IFN-gamma; test: compound activity on host-cell Toxoplasma growth – dose response (AID 1259420);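 further: host cells were HeLa; final incubation lasted 72 hours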

Question: For `OC(c1cc(C(F)(F)F)nc2c(C(F)(F)F)cccc12)C1CCCCN1` (stereo not given), which AC50 is on record?
Answer: The AC50 was 20.4 µM.

Question: With `O=C(c1ccc(F)cc1)N1CC(=O)N2[C@H](C1)[C@@H](c1ccc(C#CCC3CCCC3)cc1)[C@@H]2CO` as the molecule, how does the AC50 read?
Answer: The AC50 was 14.3 µM.

Question: For `O=C1CNC[C@H]2[C@@H](c3ccc(Br)cc3)[C@H](CO)N12`, which AC50 is on record?
Answer: The AC50 was 35.9 µM.

Question: Which AC50 does the source give for `O=C(NC1CCCCC1)N1C[C@@H]2N[C@H](C1)C2c1ccc(-c2ccc(F)cc2)cc1` (stereo not given in full) here?
Answer: Its AC50 is 23 µM.

Question: Which AC50 does the source give for `CC(C)CC#Cc1ccc([C@@H]2[C@@H](CO)N3CCCCN(C(=O)Nc4ccccc4)C[C@H]23)cc1` here?
Answer: Its AC50 is 15.9 µM.

Question: How did the AC50 turn out when `Cc1sc2ncnc(NCC3CCN(c4cnn(C)c(=O)c4)C3)c2c1C` (stereo not given) was run?
Answer: Its AC50 is 29.6 µM.

Question: How did the AC50 turn out when `N#Cc1cccc(C(=O)N2CCC3C2CC(=O)N3Cc2ccncc2)c1` (stereo not given) was run?
Answer: Its AC50 is > 20 µM (inactive).

Question: Which AC50 does the source give for `Clc1cncc(OC[C@H]2CO[C@@H]3CN(Cc4cccs4)C[C@@H]23)c1` here?
Answer: The AC50 was > 39 µM (inactive).

Question: How did the AC50 turn out when `COc1cccc(-c2ccc3c(c2)[C@H]2[C@H](CCN2S(=O)(=O)c2ccccc2F)[C@@H](CO)N3)c1` was run?
Answer: Its AC50 is 11.5 µM and 6.32 µM.

Question: With `O=C(c1ccc(F)cc1)N1CC(=O)N2[C@H](C1)[C@H](c1ccc(C#CCC3CCCC3)cc1)[C@@H]2CO` as the molecule, how does the AC50 read?
Answer: The AC50 was 16.9 µM.

Question: `CCCNC(=O)N1[C@H](C#N)[C@H](c2ccc(-c3ccccc3F)cc2)[C@@H]1CO` was tested. Which AC50 did it give?
Answer: Its AC50 is 4.65 µM.

Question: How did the AC50 turn out when `N#C[C@@H]1[C@@H](c2ccc(C#Cc3cccnc3)cc2)[C@@H](CO)N1C(=O)NC1CCCCC1` was run?
Answer: The AC50 was > 39 µM (inactive).

Question: For `N#Cc1ccc(-c2ccc(C3[C@@H]4CN(C(=O)C5CCCCC5)C[C@H]3N4)cc2)cc1` (stereo not given in full), which AC50 is on record?
Answer: The AC50 was 16.7 µM.

Question: How did the AC50 turn out when `O=C(c1ccc(F)cc1)N1CC(=O)N2[C@@H](CO)[C@H](c3ccc(C#CCC4CCCC4)cc3)[C@@H]2C1` was run?
Answer: The AC50 was 18.6 µM and 22.6 µM.

Question: `Cc1ccccc1C(=O)N1CCC(N2CCOCC2)CC1C(=O)O` (stereo not given) was tested. Which AC50 did it give?
Answer: The AC50 was > 39 µM (inactive).

Question: Which AC50 does the source give for `Cc1cc(Nc2cc(N3CCN(C)CC3)nc(Sc3ccc(NC(=O)C4CC4)cc3)n2)n[nH]1` here?
Answer: The AC50 was 18.7 µM.

Question: With `CCOC(=O)N1CCC(N[C@H]2COC[C@@H]2OCC)CC1` as the molecule, how does the AC50 read?
Answer: The AC50 was 36.8 µM.

Question: Which AC50 does the source give for `COc1cccc(-c2ccc([C@@H]3[C@H]4CN(C(=O)c5cccnc5)CC(=O)N4[C@H]3CO)cc2)c1` here?
Answer: Its AC50 is > 39 µM (inactive).

Question: How did the AC50 turn out when `O=C(c1ccc(F)cc1)N1CC(=O)N2[C@@H](CO)[C@@H](c3ccc(C#CCC4CCCC4)cc3)[C@@H]2C1` was run?
Answer: Its AC50 is 21.2 µM.

Question: How did the AC50 turn out when `CN(C)C(=O)COC[C@@H]1CC[C@H]2[C@H](CCN2CC2CC2)O1` was run?
Answer: Its AC50 is > 39 µM (inactive).

Question: For `Cc1ccc(N(Cc2nc(-c3cccc(Cl)c3)oc2C)S(=O)(=O)c2cccs2)cc1`, which AC50 is on record?
Answer: Its AC50 is 8.34 µM.

Question: For `c1ccc2c(Oc3nc(Nc4ccc(N5CCOCC5)cc4)c4ncn(C5CCCCC5)c4n3)cccc2c1`, which AC50 is on record?
Answer: The AC50 was 12.7 µM.

Question: Which AC50 does the source give for `CCCCCCCCCCCCCCCC[n+]1ccccc1` here?
Answer: Its AC50 is 6.86 µM.

Question: How did the AC50 turn out when `COc1ccccc1-c1ccc2c(c1)[C@@H]1[C@@H](CCN1S(=O)(=O)c1ccc(C)cc1)[C@H](CO)N2` was run?
Answer: The AC50 was 12.4 µM.

Question: Which AC50 does the source give for `Cn1cccc1C(=O)N1CCC2(CC1)CN(CC1CC1)C(=O)CO2` here?
Answer: The AC50 was 36.8 µM.

Question: `COc1cccc(C#Cc2ccc([C@@H]3[C@H](C#N)N(C(=O)c4ccccn4)[C@H]3CO)cc2)c1` was tested. Which AC50 did it give?
Answer: The AC50 was 19.9 µM.

Question: `COc1cccc(CNC(=O)c2cc3c(s2)CCN3C(=O)c2ccc(F)cc2)c1` was tested. Which AC50 did it give?
Answer: Its AC50 is 2.74 µM.

Question: With `O=C(CCCCCCNC(=O)c1cnc(N(c2ccccc2)c2ccccc2)nc1)NO` as the molecule, how does the AC50 read?
Answer: Its AC50 is 14.8 µM.

Question: For `CN(Cc1ccccn1)C(=O)C1=NOC2(CCN(S(=O)(=O)c3ccc(F)cc3)C2)C1` (stereo not given), which AC50 is on record?
Answer: The AC50 was > 39 µM (inactive).

Question: How did the AC50 turn out when `O=C(Nc1cccc(F)c1)N1CCCCN2[C@@H](CO)[C@H](c3ccc(C#Cc4cccnc4)cc3)[C@@H]2C1` was run?
Answer: Its AC50 is 3.04 µM.

Question: With `O=S(=O)(c1ccccc1F)N1CCC(c2nc3ccc(-c4ccncc4)cn3n2)CC1` as the molecule, how does the AC50 read?
Answer: The AC50 was > 39 µM (inactive).

Question: With `Cc1cc(C(C)(C)CC(C)(C)C)ccc1OCCOCC[N+](C)(C)Cc1ccccc1` as the molecule, how does the AC50 read?
Answer: Its AC50 is 12.5 µM.

Question: For `COCC#Cc1ccc([C@@H]2[C@H]3CN(C(=O)C4CCCCC4)CC(=O)N3[C@H]2CO)cc1`, which AC50 is on record?
Answer: Its AC50 is > 39 µM (inactive).

Question: `COc1ccccc1C1CN(Cc2cccc(O)c2)Cc2ccccc2O1` (stereo not given) was tested. Which AC50 did it give?
Answer: The AC50 was 22.8 µM.

Question: `COc1cccc(NC(=O)N2CC(=O)N3[C@H](CO)[C@H](c4ccc(C#CCC5CCCC5)cc4)[C@H]3C2)c1` was tested. Which AC50 did it give?
Answer: The AC50 was 13.9 µM and 16.2 µM.

Question: For `Nc1ncnc2c1ncn2[C@@H]1O[C@H](C[C@@H](N)CC[C@H](N)C(=O)O)[C@@H](O)[C@H]1O`, which AC50 is on record?
Answer: The AC50 was 1.38 µM.

Question: Which AC50 does the source give for `CO[C@@H]1[C@@H](OC(N)=O)[C@@H](O)[C@H](Oc2ccc3c(O)c(NC(=O)c4ccc(O)c(CC=C(C)C)c4)c(=O)oc3c2C)OC1(C)C` here?
Answer: Its AC50 is 18 µM.

Question: `CCCNC(=O)N1C[C@@H]2N[C@H](C1)C2c1ccc(-c2ccc(OC)cc2)cc1` (stereo not given in full) was tested. Which AC50 did it give?
Answer: Its AC50 is 14.2 µM.

Question: `COc1ccccc1NC(=O)N1CC(=O)N2[C@H](CO)[C@H](c3ccc(C#CC(C)C)cc3)[C@H]2C1` was tested. Which AC50 did it give?
Answer: The AC50 was > 39 µM (inactive).

Question: With `C[C@@H]1CN([C@@H](C)CO)C(=O)c2cccc(NC(=O)NC3CCCCC3)c2O[C@@H]1CN(C)Cc1ccc(C(F)(F)F)cc1` as the molecule, how does the AC50 read?
Answer: Its AC50 is > 39 µM (inactive).

Question: With `c1cnc(N2CCC(Oc3cnccn3)CC2)nc1` as the molecule, how does the AC50 read?
Answer: Its AC50 is 15.6 µM.

Question: How did the AC50 turn out when `CC(C)C#Cc1ccc([C@@H]2[C@@H](CO)N(C(=O)c3cccc(F)c3)[C@H]2C#N)cc1` was run?
Answer: The AC50 was > 20 µM (inactive).

Question: `CN(C)C(=O)COCC1CN(S(C)(=O)=O)Cc2nnn(C)c21` (stereo not given) was tested. Which AC50 did it give?
Answer: The AC50 was > 39 µM (inactive).

Question: For `C/C=C/c1ccc(C2[C@H]3CNC[C@@H]2N3Cc2cc(F)ccc2F)cc1` (stereo not given in full), which AC50 is on record?
Answer: The AC50 was 11.4 µM.

Question: With `CCN(CC)C(=O)C1Cn2ccnc2C2(CCN(CC(C)C)CC2)O1` (stereo not given) as the molecule, how does the AC50 read?
Answer: The AC50 was > 39 µM (inactive).
